From US7601716B2, “Pyridopyrazines and derivatives thereof as ALK and c-Met inhibitors” (Cephalon, Inc., priority 2006, dated 2009)
Where a name gives a salt, the structure may show the parent alone.

What was measured:
[1] = molecular target: baculovirus-expressed ALK (Homo sapiens, UniProt Q9UM73); test: ALK Kinase Assay (ELISA/TRF, PLC-γ substrate); assay type: biochemical; conditions: read-out: ALK Kinase Inhibition (IC50); note: 1 µM ATP (Km level)
Method in brief: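 Plates coated with GST–PLC-γ fusion substrate (10 μg/mL in TBS); reaction started with 30 ng/ml ALK, run 15 minutes at 37° C. Phosphotyrosine detected by Eu-N1 PT66 antibody (1 hour, 37° C) and time-resolved fluorescence after enhancement. IC50 from sigmoidal variable-slope fit of percent inhibition versus log concentration.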

[2] = molecular target: T1, c-Met (cytoplasmic domain) (Homo sapiens, UniProt P08581); test: c-Met Kinase Assay (ELISA/TRF, PLC-γ substrate); assay type: biochemical; conditions: 3 μM ATP (Km level); read-out: c-Met Kinase Inhibition (IC50)
T1 construct: Reactions were initiated with 30 ng/mL c-Met (cytoplasmic domain, Invitrogen Corporation #PV3143); purchased Invitrogen Corporation PV3143
T1 sequence (P08581 956-1390 limits assumed): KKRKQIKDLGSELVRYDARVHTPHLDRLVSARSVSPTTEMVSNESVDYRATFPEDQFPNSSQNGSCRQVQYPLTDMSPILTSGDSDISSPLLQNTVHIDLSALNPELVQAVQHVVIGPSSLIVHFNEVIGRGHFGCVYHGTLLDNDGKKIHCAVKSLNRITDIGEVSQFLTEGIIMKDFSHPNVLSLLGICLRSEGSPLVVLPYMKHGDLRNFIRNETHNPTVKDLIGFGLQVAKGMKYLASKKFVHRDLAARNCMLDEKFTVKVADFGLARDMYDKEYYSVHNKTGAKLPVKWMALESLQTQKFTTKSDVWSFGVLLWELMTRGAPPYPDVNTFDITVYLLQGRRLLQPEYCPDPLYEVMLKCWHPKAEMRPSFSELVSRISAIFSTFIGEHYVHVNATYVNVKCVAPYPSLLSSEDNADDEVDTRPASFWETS
Method in brief: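 c-Met cytoplasmic domain (30 ng/mL) phosphorylates plate-coated GST–PLC-γ for 15 min at 37 °C. Phosphotyrosine detected with Eu-labeled PT66 antibody by time-resolved fluorescence. IC50 from variable-slope sigmoidal fit of % inhibition vs log concentration.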

Chain of baculovirus-expressed ALK (Q9UM73 19-1620): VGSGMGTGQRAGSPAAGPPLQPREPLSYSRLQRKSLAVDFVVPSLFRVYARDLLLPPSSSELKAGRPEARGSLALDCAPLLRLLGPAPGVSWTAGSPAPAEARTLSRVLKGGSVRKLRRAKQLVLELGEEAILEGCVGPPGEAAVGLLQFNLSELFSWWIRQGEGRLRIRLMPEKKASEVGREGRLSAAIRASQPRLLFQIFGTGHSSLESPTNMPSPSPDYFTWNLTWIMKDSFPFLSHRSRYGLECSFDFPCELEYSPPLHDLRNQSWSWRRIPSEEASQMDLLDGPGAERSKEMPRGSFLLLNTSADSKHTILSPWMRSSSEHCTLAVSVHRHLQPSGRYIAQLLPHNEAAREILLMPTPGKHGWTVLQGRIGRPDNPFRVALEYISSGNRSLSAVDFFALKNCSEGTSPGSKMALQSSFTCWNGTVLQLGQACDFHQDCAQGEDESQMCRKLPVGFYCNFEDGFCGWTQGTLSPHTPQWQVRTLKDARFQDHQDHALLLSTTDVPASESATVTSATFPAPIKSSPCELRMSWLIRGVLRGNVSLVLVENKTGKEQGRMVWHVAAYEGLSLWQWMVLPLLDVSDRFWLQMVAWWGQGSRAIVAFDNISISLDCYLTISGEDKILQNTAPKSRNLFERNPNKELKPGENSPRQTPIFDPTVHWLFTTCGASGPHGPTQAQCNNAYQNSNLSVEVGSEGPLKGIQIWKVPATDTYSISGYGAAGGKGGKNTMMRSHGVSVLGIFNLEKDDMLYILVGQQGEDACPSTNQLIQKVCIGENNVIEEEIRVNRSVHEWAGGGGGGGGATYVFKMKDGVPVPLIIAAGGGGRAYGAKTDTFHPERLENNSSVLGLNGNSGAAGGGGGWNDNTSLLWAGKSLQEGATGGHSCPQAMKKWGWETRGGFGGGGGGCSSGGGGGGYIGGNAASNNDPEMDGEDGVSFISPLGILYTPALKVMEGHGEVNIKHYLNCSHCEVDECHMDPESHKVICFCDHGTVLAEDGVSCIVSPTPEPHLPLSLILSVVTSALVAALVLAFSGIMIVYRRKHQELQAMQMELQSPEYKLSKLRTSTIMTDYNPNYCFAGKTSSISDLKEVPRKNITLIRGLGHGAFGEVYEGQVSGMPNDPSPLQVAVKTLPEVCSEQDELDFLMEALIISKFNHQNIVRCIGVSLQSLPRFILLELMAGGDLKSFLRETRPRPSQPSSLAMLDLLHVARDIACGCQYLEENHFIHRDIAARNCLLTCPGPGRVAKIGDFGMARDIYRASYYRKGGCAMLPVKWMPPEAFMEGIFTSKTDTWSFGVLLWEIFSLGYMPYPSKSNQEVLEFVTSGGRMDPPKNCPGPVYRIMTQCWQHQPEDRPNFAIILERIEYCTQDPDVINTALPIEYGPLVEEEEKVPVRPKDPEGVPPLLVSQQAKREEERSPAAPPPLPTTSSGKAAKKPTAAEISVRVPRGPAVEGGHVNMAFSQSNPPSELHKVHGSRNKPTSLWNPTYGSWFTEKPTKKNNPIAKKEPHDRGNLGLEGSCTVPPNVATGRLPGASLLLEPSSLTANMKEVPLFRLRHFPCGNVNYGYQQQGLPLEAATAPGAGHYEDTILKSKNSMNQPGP

Structure (SMILES) | IC50 [1] | IC50 [2]
COc1ccc(CNC(=O)c2cnc3c(c2)N(Cc2cc(Cl)ccc2Cl)CCN3)cc1 [Example 258, 1-(2,5-Dichlorobenzyl)-1,2,3,4-tetrahydropyrido[2,3-b]pyrazine-7-carboxylic acid 4-methoxybenzylamide] | 1 to 10 µM | > 100 µM
O=C(c1ccccc1)N1CCNc2ncc(-c3ccc(NS(=O)(=O)CCN4CCCC4)cc3)cc21 [Example 46, 2-Pyrrolidin-1-yl-ethanesulfonic acid[4-(1-benzoyl-1,2,3,4-tetrahydropyrido[2,3-b]pyrazin-7-yl)phenyl]amide] | 10 to 100 µM | 10 to 100 µM
CN1CCN(C(=O)c2ccc(-c3cnc4c(c3)N(Cc3cc(F)c(F)cc3F)CCN4)cc2)CC1 [Example 86, (4-Methylpiperazin-1-yl)-{4-[1-(2,4,5-trifluorobenzyl)-1,2,3,4-tetrahydropyrido[2,3-b]pyrazin-7-yl]phenyl}-methanone] | 1 to 10 µM | 1 to 10 µM
COc1ncc(-c2cnc3c(c2)N(Cc2cc(Cl)ccc2Cl)CCN3)cn1 [Example 129, 1-(2,5-Dichlorobenzyl)-7-(2-methoxypyrimidin-5-yl)-1,2,3,4-tetrahydropyrido[2,3-b]pyrazine] | 0.1 to 1 µM | 10 to 100 µM
O=C(NCc1ccccc1Cl)c1cnc2c(c1)N(Cc1cc(Cl)ccc1Cl)CCN2 [Example 256, 1-(2,5-Dichlorobenzyl)-1,2,3,4-tetrahydropyrido[2,3-b]pyrazine-7-carboxylic acid 2-chloro-benzylamide] | 1 to 10 µM | > 100 µM
Fc1ccc(F)c(CN2CCNc3ncc(-c4ccnc(N5CCOCC5)c4Cl)cc32)c1Cl [Example 101, 1-(2-Chloro-3,6-difluorobenzyl)-7-(3-chloro-2-morpholin-4-yl-pyridin-4-yl)-1,2,3,4-tetrahydropyrido[2,3-b]pyrazine] | 0.1 to 1 µM | 1 to 10 µM
c1ccc(CN2CCNc3ncccc32)cc1 [Example 32, 1-Benzyl-1,2,3,4-tetrahydropyrido[2,3-b]pyrazine] | > 100 µM | > 100 µM
O=C(O)c1cccc(-c2cnc3c(c2)N(Cc2ccccc2)C(=O)CN3)c1 [Example 31, 3-(1-Benzyl-2-oxo-1,2,3,4-tetrahydropyrido[2,3-b]pyrazin-7-yl)benzoic acid] | > 100 µM | 10 to 100 µM
O=C(NCCN1CCCC1)c1ccc(-c2cnc3c(c2)N(Cc2ccccc2)C(=O)CN3)cc1 [Example 12, 4-(1-Benzyl-2-oxo-1,2,3,4-tetrahydropyrido[2,3-b]pyrazin-7-yl)-N-(2-pyrrolidin-1-yl-ethyl)benzamide, trifluoroacetic acid salt] | 1 to 10 µM | 10 to 100 µM
O=C(c1cnc2c(c1)N(Cc1cc(Cl)ccc1Cl)CCN2)N1CCN(c2ccc(Cl)cc2)CC1 [Example 250, [4-(4-Chlorophenyl)piperazin-1-yl]-[1-(2,5-dichlorobenzyl)-1,2,3,4-tetrahydropyrido[2,3-b]pyrazin-7-yl]methanone] | 0.1 to 1 µM | > 100 µM
CN1CCN(CCNC(=O)c2cnc3c(c2)N(Cc2cc(F)ccc2F)CCN3)CC1 [Example 80, 1-(2,5-Difluorobenzyl)-1,2,3,4-tetrahydropyrido[2,3-b]pyrazine-7-carboxylic acid[2(4-methylpiperazin-1-yl)ethyl]amide] | 10 to 100 µM | > 100 µM
O=C(NC1CCCCC1)c1cnc2c(c1)N(Cc1cc(Cl)ccc1Cl)CCN2 [Example 248, 1-(2,5-Dichlorobenzyl)-1,2,3,4-tetrahydropyrido[2,3-b]pyrazine-7-carboxylic acid cyclohexylamide] | 1 to 10 µM | > 100 µM
O=C(NCC1CCCO1)c1cnc2c(c1)N(Cc1cc(Cl)ccc1Cl)CCN2 (stereo not drawn) [Example 254, 1-(2,5-Dichlorobenzyl)-1,2,3,4-tetrahydropyrido[2,3-b]pyrazine-7-carboxylic acid (tetrahydrofuran-2-yl-methyl)amide] | 1 to 10 µM | > 100 µM
CC(c1cc(F)c(F)cc1F)N1CCNc2ncc(I)cc21 (stereo not drawn) [Example 147, 7-Iodo-1-[1-(2,4,5-trifluorophenyl)ethyl]-1,2,3,4-tetrahydropyrido[2,3-b]pyrazine] | 10 to 100 µM | > 100 µM

Next, values leading:

IC50 [1] | IC50 [2] | Structure (SMILES)
1 to 10 µM | 10 to 100 µM | O=C1CNc2ncc(-c3cccc(C(=O)N4CCC[C@H]4CN4CCCC4)c3)cc2N1Cc1ccccc1 [Example 18, S-1-Benzyl-7-[3-(2-[(pyrrolidin-1-yl)methyl]pyrrolidine-1-carbonyl)phenyl]-3,4-dihydro-1H-pyrido[2,3-b]pyrazin-2-one, trifluoroacetic acid salt]
10 to 100 µM | > 100 µM | CN1CCN(C(=O)c2cnc3c(c2)N(Cc2cc(F)ccc2F)CCN3)CC1 [Example 79, [1-(2,5-Difluorobenzyl)-1,2,3,4-tetrahydropyrido[2,3-b]pyrazin-7-yl]-(4-methylpiperazin-1-yl)methanone]
10 to 100 µM | 1 to 10 µM | CN1CCN(C(=O)c2ccc(-c3cnc4c(c3)C(Oc3cc(Cl)cc(Cl)c3)CCN4)cc2)CC1 (stereo not drawn) [Example 275, {4-[5-(3,5-Dichlorophenoxy)-5,6,7,8-tetrahydro-[1,8]naphthyridin-3-yl]phenyl}-(4-methylpiperazin-1-yl)methanone]
10 to 100 µM | 10 to 100 µM | O=C(c1cnc2c(c1)N(Cc1cc(Cl)ccc1Cl)CCN2)N1CCOCC1 [Example 243, [1-(2,5-Dichlorobenzyl)-1,2,3,4-tetrahydropyrido[2,3-b]pyrazin-7-yl]morpholin-4-yl-methanone]
10 to 100 µM | > 100 µM | O=C(c1cnc2c(c1)N(Cc1cc(Cl)ccc1Cl)CCN2)N1CCN(C(=O)C2CCCO2)CC1 (stereo not drawn) [Example 252, [1-(2,5-Dichlorobenzyl)-1,2,3,4-tetrahydropyrido[2,3-b]pyrazin-7-yl]-[4-(tetrahydrofuran-2-carbonyl)piperazin-1-yl]methanone]
10 to 100 µM | 10 to 100 µM | O=C(c1ccc(-c2cnc3ncc(=O)n(Cc4ccccc4)c3c2)cc1)N1CCC(N2CCCC2)CC1 [Example 17, 1-Benzyl-7-[4-(4-(pyrrolidin-1-yl)piperidine-1-carbonyl)phenyl]-1H-pyrido[2,3-b]pyrazin-2-one, trifluoroacetic acid salt]
0.1 to 1 µM | > 100 µM | O=C(NCCc1ccccc1)c1cnc2c(c1)N(Cc1cc(Cl)ccc1Cl)CCN2 [Example 253, 1-(2,5-Dichlorobenzyl)-1,2,3,4-tetrahydropyrido[2,3-b]pyrazine-7-carboxylic acid phenethyl-amide]
1 to 10 µM | 10 to 100 µM | CN1CCN(C(=O)c2ccc(-c3cnc4c(c3)N(Cc3c(F)ccc(F)c3Cl)C(=O)CN4)cc2)CC1 [Example 7, 1-(2-Chloro-3,6-difluorobenzyl)-7-[4-(4-methylpiperazine-1-carbonyl)phenyl]-3,4-dihydro-1H-pyrido[2,3-b]pyrazin-2-one]
> 100 µM | > 100 µM | CCNC(=O)c1cccc(-c2cnc3c(c2)N(Cc2ccccc2)C(=O)CN3)c1 [Example 22, 3-(1-Benzyl-2-oxo-1,2,3,4-tetrahydropyrido[2,3-b]pyrazin-7-yl)-N-ethyl-benzamide]
1 to 10 µM | > 100 µM | O=C(c1cnc2c(c1)N(Cc1cc(Cl)ccc1Cl)CCN2)N1CCN(c2ncccn2)CC1 [Example 207, [1-(2,5-Dichlorobenzyl)-1,2,3,4-tetrahydropyrido[2,3-b]pyrazin-7-yl]-(4-pyrimidin-2-yl-piperazin-1-yl)-methanone]
